According to US20260226048A1, “MULTI-CYCLIC IRAK AND FLT3 INHIBITING COMPOUNDS AND USES THEREOF” (CHILDREN'S HOSPITAL MEDICAL CENTER, priority 2023, published 2026):
Like-named read-outs stand apart in the source and are kept apart here.

Key:
[1] = system: NF-κB-inducible SEAP reporter in THP-1-Blue NF-κB cells; assay: NF-kB SEAP reporter assay in THP-1-Blue NF-κB cells; assay type: cell-based; details: 24 hours
Procedure, shortened: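 Cells (1×10^5/well) stimulated with Pam3CSK4 (1 ng/mL) or hIL1B (1 ng/mL), then after 10-20 min given 10-point 1:10 compound dilutions from 1 μM or 3 μM for 24 h at 37° C. Secreted SEAP in supernatant read with QUANTI-Blue (30-60 min, 37° C) at 620 nm.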

FLT3 = target: T1, FLT3 (Homo sapiens, UniProt P36888); assay: Reaction Biology NanoBRET target engagement assay in HEK-293 cells, FLT3; assay type: cell-based; details: live HEK-293 cells transfected with Kinase-NanoLuc fusion, 1 hour
T1 sequence (P36888 27-993): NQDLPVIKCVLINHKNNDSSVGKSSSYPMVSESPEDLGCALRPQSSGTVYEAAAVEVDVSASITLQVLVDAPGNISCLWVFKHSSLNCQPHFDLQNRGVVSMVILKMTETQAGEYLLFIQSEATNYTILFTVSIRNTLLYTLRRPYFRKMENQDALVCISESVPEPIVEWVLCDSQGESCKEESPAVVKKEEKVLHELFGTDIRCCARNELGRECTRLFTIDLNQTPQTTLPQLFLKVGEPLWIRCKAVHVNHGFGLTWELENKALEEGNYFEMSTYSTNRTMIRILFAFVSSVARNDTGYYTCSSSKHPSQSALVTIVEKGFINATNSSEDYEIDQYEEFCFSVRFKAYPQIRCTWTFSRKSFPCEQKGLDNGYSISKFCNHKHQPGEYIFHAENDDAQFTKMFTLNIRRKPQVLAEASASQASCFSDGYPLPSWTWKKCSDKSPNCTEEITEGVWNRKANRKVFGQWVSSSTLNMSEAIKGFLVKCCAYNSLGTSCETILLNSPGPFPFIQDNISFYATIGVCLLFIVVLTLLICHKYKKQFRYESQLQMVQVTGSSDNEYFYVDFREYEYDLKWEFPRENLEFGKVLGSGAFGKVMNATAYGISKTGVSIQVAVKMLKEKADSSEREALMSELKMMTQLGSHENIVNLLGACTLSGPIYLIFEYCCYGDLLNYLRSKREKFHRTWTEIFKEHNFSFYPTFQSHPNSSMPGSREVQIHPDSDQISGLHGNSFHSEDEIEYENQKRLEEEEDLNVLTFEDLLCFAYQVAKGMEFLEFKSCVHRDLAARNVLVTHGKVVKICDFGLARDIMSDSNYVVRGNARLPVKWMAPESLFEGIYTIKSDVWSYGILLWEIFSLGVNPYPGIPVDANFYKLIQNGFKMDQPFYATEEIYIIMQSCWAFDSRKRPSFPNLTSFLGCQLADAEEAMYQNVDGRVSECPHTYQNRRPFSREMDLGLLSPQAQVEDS
From the text: The NanoBRET assay measures kinase engagement in real time in the context of the intact cell. Unlike the previously described biochemical kinase assay methodology in Example 33, the NanoBRET assay measures the binding and activity characteristics under equilibrium conditions using full-length kinases in the presence of cellular concentrations of ATP in live, uncompromised cells. As such, the assay provides a more relevant assessment of kinase potency and selectivity that would be expected to be observed in the native cellular environment, where potency is often considerably lower than that observed in the isolated biochemical assays (Vasta, J. D. et al., (2018) Cell Chem. Biol. 25, 206-214). The assay uses a Kinase-NanoLuc® fusion vector expressing a kinase protein to which a luciferase tag has been added, a cell-permeant fluorescent NanoBRET™ tracer, a NanoLuc® substrate, and an extracellular NanoLuc® inhibitor. Upon expression of the luciferase-tagged kinase, cells will produce a strong BRET signal only in the presence of the NanoBRET™ tracer. The extracellular NanoLuc® inhibitor ensures that the BRET signal observed emanates only from live cells. Because the BRET signal has tight distance constraints, addition of the test compound will decrease the BRET signal if the compound competes with the NanoBRET™ tracer for binding to the kinase domain. Under the appropriate tracer conditions established by the manufacturer, quantitative intracellular affinity and relative potency can then be determined using Mass Action model equations.
HEK-293 cells were purchased from ATCC. FuGENEHD Transfection Reagent, Kinase-NanoLucfusion plasmids, Transfection Carrier DNA, NanoBRETTracers and dilution buffer, NanoBRETNano-Glo Substrate, Extracellular NanoLucInhibitor were obtained from Promega.
Assays were conducted following Promega assay protocol with some modifications. HEK-293 Cells were transiently transfected with Kinase-NanoLucFusion Vector DNA by FuGENEHD Transfection Reagent. Testing compounds were delivered into 384 well assay plate by Echo 550 (LabcyteInc, Sunnyvale, CA). Transfected cells were harvested and mixed with NanoBRETTracer Reagent and dispensed into 384 well plates and incubated at 37° C. in 5% C02 cell culture incubator for 1 hour. The NanoBRETNano-Glo Substrate plus Extracellular NanoLucInhibitor Solution were added into the wells of the assay plate and incubated for 2-3 minutes at room temperature. The donor emission wavelength (460 nm) and acceptor emission wavelength (600 nm) were measured in the EnVisionplate reader. The BRET Ratios were calculated. BRET Ratio=[(Acceptor sample÷Donor sample)−(Acceptor no-tracer control÷Donor no-tracer control)]. The IC50 values of compounds were calculated with Prism GraphPad program.
• 1). Cultivate HEK-293 cells (70-80% confluence) appropriately prior to assay. Trypsinize and collect HEK-293 cells. • 2). Prepare lipid: DNA complexes as follows: • a. Prepare a 10 μg/ml solution of DNA in Opti-MEM without serum that consists of the following ratios of carrier DNA and DNA encoding NanoLuc® fusion. 9.0 μg/mL of Transfection Carrier DNA, 1.0 μg/mL of NanoLuc fusion vector DNA and 1 mL of Opti-MEM without phenol red. Mix thoroughly. • b. Add 30 μl of FuGENE HD Transfection Reagent into each milliliter of DNA mixture to form lipid: DNA complex. • c. Mix by inversion 10 times. • d. Incubate at ambient temperature for 20 minutes to allow complexes to form. • 3). In a sterile, conical tube, mix 1 part of lipid:DNA complex with 20 parts of HEK-293 cells in suspension. Mix gently by inversion 5 times. • 4). Dispense cells+lipid:DNA complex into a sterile tissue culture dish and incubate for 22-24 hours.
Each test compound is delivered from the compound source plate to the wells of 384-well white NBS plate by Echo 550.
3. Preparation of Cells with NanoBRET™ Tracer Reagent • 1). […]

## COc1cc2ncc(-c3nc(N[C@H]4CNCC[C@@H]4F)ncc3F)n2nc1N1CCCS1(=O)=O [Compound 112a, 2-(3-(5-fluoro-2-(((3S,4S)-4-fluoropiperidin-3-yl)amino)pyrimidin-4-yl)-7-methoxyimidazo[1,2-b]pyridazin-6-yl)isothiazolidine 1,1-dioxide]
[1]; THP-1-Blue NF-κB cells stimulated with Pam3CSK4 (1 ng/mL), read-out: NF-κB Pam3SCK4 IC50
  IC50: 235 nM
[1]; THP-1-Blue NF-κB cells stimulated with hIL1B (1 ng/mL), read-out: NF-κB IL1B IC50
  IC50: 355 nM
FLT3
  IC50: < 0.5 nM
